PubChem BioAssay (NCI)
Values joined by “and” are separate entries in the source; they are usually repeats but may differ in a detail not shown here. Equal entries are not always repeated.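 Five compound concentrations were applied to cells in 96-well plates for 48 hours; endpoints were derived by simple linear interpolation of the resulting dose-response curve. GI50 is the concentration that inhibits growth by half. TGI denotes the concentration required for complete inhibition of growth.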

Tests used:
Assay in all cases: NCI tumour cell line growth inhibition, 48 h
TK-10 renal = tested on: TK-10 renal
MCF7 breast = tested on: MCF7 breast
DU-145 prostate = tested on: DU-145 prostate
SK-MEL-2 melanoma = tested on: SK-MEL-2 melanoma
OVCAR-5 ovarian = tested on: OVCAR-5 ovarian
SK-MEL-28 melanoma = tested on: SK-MEL-28 melanoma
UACC-257 melanoma = tested on: UACC-257 melanoma
BT-549 breast = tested on: BT-549 breast
OVCAR-3 ovarian = tested on: OVCAR-3 ovarian
MOLT-4 leukemia = tested on: MOLT-4 leukemia

| SMILES | GI50 (TK-10 renal) | TGI (TK-10 renal) | GI50 (MCF7 breast) | TGI (MCF7 breast) | GI50 (DU-145 prostate) | TGI (DU-145 prostate) | GI50 (SK-MEL-2 melanoma) | TGI (SK-MEL-2 melanoma) | GI50 (OVCAR-5 ovarian) | TGI (OVCAR-5 ovarian) | GI50 (SK-MEL-28 melanoma) | TGI (SK-MEL-28 melanoma) | GI50 (UACC-257 melanoma) | TGI (UACC-257 melanoma) | GI50 (BT-549 breast) | TGI (BT-549 breast) | GI50 (OVCAR-3 ovarian) | TGI (OVCAR-3 ovarian) | GI50 (MOLT-4 leukemia) | TGI (MOLT-4 leukemia) |
| --- | --- | --- | --- | --- | --- | --- | --- | --- | --- | --- | --- | --- | --- | --- | --- | --- | --- | --- | --- | --- |
| N#Cc1c(NN)n(C2OC(CO)C(O)C2O)c2ncnc(N)c12 (centres undefined) | 0.247 µM | 7.93 µM | 0.0315 µM | 2.87 µM | 0.0375 µM | 6.26 µM | 0.282 µM | 0.946 µM | 0.311 µM | 14.4 µM | 0.0312 µM | 0.216 µM | 0.267 µM | 1.66 µM | 0.271 µM | 2.8 µM | 0.028 µM | 0.299 µM | 0.095 µM | 0.402 µM |
| C=C1CC[C@@H]2[C@](C)(COC(C)=O)[C@H](OC(C)=O)CC[C@@]2(C)[C@@H]1CC(Sc1ccccc1)C1=CCOC1=O (some centres undefined) | 2.83 µM | 5.54 µM | 0.538 µM | 2.35 µM | 1.41 µM | 2.74 µM | 2.25 µM | 4.59 µM | 2.46 µM | 4.67 µM | 1.62 µM | 3.29 µM | 1.91 µM | 3.71 µM | 1.59 µM | 3.99 µM | 1.14 µM | 2.37 µM | 1.48 µM | 6.15 µM |
| CCN(CC)CCC(CNc1ccnc2cc(Cl)ccc12)c1ccc(OC)cc1 (centres undefined) | 3.97 µM and 1.99 µM | 14.2 µM and 5.15 µM | 4.98 µM and 4.5 µM | 21.1 µM and 17.9 µM | 21.9 µM and 26.7 µM | > 100 µM | 15.4 µM and 2.02 µM | 33.1 µM and 4.07 µM | 11.6 µM and 5.65 µM | 32.2 µM and 38.6 µM | 1.75 µM and 1.87 µM | 3.4 µM and 3.42 µM | 2.19 µM and 1.72 µM | 3.96 µM and 3.48 µM | 8.14 µM and 8.47 µM | 23.4 µM and 22.6 µM | 16.7 µM and 6.96 µM | 66.3 µM and 33.1 µM | 6.77 µM and 4.68 µM | 41.4 µM and 50.9 µM |
| CC(=O)c1cccc(NC(=O)C(=O)NNc2n[nH]c(=S)n2N)c1 |  | 69.9 µM |  | 18.7 µM |  | 19.2 µM |  | 13.1 µM |  | 33.1 µM |  | 18.5 µM |  | 9.17 µM |  | 6.65 µM |  | 15.9 µM |  | 18.3 µM |
| Cc1cc(I)cc(CN(C)CCCN2CCCCCCC2)c1O | 13.4 µM | 27 µM | 14.2 µM | 30.6 µM | 17.8 µM | 38 µM | 21.8 µM | 41.7 µM | 18.8 µM | 41.5 µM | 15.3 µM | 31.2 µM | 16.2 µM | 34.3 µM | 13.1 µM | 26.7 µM | 14.8 µM | 29.1 µM | 3.7 µM | 19.9 µM |
| COc1ccc(-n2cc(-c3cc(OC)c(OC)c(OC)c3)c(C(=O)C(F)(F)F)c2C)cc1 | 35.7 µM | > 100 µM | 14.2 µM | > 100 µM | > 100 µM | > 100 µM | > 100 µM | > 100 µM | > 100 µM | > 100 µM | > 100 µM | > 100 µM | 15.7 µM | > 100 µM | 56.2 µM | > 100 µM | 24.9 µM | > 100 µM | 6.02 µM | > 100 µM |
| CCN1CCN(C(c2ccc(C(F)(F)F)cc2)c2ccc3cccnc3c2O)CC1 (centres undefined) | 10 µM | 22 µM | 3.46 µM | 14.9 µM | 5.56 µM | 18.7 µM | 4.53 µM | 17.6 µM | 2.61 µM | 14.6 µM | 3.68 µM | 16.6 µM | 2.06 µM | 6.69 µM | 1.4 µM | 11.6 µM | 3.47 µM | 15.4 µM | 2.12 µM | 6.05 µM |
| CCCCCCCCCCCCOC1C(C(COC2OC(C3COC(C)(C)O3)C3OC(C)(C)OC23)NC(=O)Nc2ccc(C(=O)O)cc2)OC2OC(C)(C)OC21 (centres undefined) | 4.13 µM | 14.4 µM | 2.84 µM | 10.8 µM | 3.07 µM | 9.79 µM | 2.23 µM | 4.82 µM | 2.67 µM | 6.85 µM | 3.16 µM | 13 µM | 2.38 µM | 5.79 µM | 1.79 µM | 4.59 µM | 2.48 µM | 7.49 µM | 3.29 µM | 8.34 µM |
| Cn1nc(N)c2cc([C@@H]3Nc4ccc5[nH]ncc5c4[C@H]4C5CCC(C5)[C@@H]34)ccc21 (some centres undefined) | 19.6 µM | > 100 µM | 0.327 µM | 18.4 µM | 0.438 µM | 37.7 µM | 11.1 µM | 39.4 µM | 1.48 µM | 23.4 µM | 4.35 µM | 29.1 µM | 15.9 µM | 59.5 µM | 1.01 µM | 12.3 µM | 0.337 µM | 4.07 µM | 0.556 µM | > 51 µM |
| CN1CCN(CCOc2ccc(-c3cnc4c(-c5ccccc5F)cnn4c3)cc2)CC1 | 2.09 µM | 3.9 µM | 1.32 µM | 2.97 µM | 1.65 µM | 3.07 µM | 1.86 µM | 3.57 µM | 1.72 µM | 3.23 µM | 1.7 µM | 3.07 µM | 1.87 µM | 3.41 µM | 1.9 µM | 3.77 µM | 1.81 µM | 4.02 µM | 1.79 µM | 4.36 µM |
| CCCCCCNC(=O)c1cc(NCc2cc(O)ccc2O)ccc1O | 10.7 µM | 23.1 µM | 5.01 µM | 27.7 µM | 15.2 µM | 28.8 µM | 11.9 µM | 34.5 µM | 6.63 µM | 20.8 µM | 12.3 µM | 25.4 µM | 14.1 µM | 30.4 µM | 1.14 µM | 4.27 µM | 2.76 µM | 13 µM | 1.2 µM | 13.4 µM |
| C=COCCCOc1ccccc1 |  | > 100 µM | > 100 µM | > 100 µM | > 100 µM | > 100 µM |  | > 100 µM |  | > 100 µM |  | > 100 µM | > 100 µM | > 100 µM | > 100 µM | > 100 µM |  | > 100 µM |  | > 100 µM |
| CC(C)CCN1c2nc(Nc3cc(F)c(O)c(F)c3)ncc2N(C)C(=O)C1C (centres undefined) | 4.34 µM | > 87.2 µM | 2.85 µM | 18.1 µM | 6.41 µM | 77.5 µM | 3.14 µM | 15.2 µM | 19.1 µM | > 100 µM | 10.9 µM | > 95.8 µM | 17.1 µM | > 88.2 µM | 5.66 µM | > 67.7 µM | 3.65 µM | 24.1 µM | 4.1 µM | 19.9 µM |
| O=C1c2cccc(NCCCNCCO)c2C(=O)c2cccc(NCCCNCCO)c21 |  | 8.6 µM and 13.4 µM |  | 1.41 µM |  | 7.44 µM |  | 3.47 µM and 3.42 µM |  | 6.28 µM and 6.41 µM |  | 3.99 µM and 3.84 µM |  | 11.2 µM and 14 µM |  | 4.21 µM |  | 5.65 µM and 9.94 µM |  | 13.1 µM and 8.29 µM |
| O=C(Cc1ccc(/C=C/C(=O)c2ncc[nH]2)cc1)Nc1cc(F)c(F)c(F)c1 | 4.51 µM | 10.1 µM | 2.38 µM | 7.76 µM | 3.37 µM | 7.08 µM | 5.15 µM | 15.7 µM | 4.58 µM | 8.84 µM | 4.15 µM | 8.09 µM | 4.49 µM | 11.9 µM | 3.37 µM | 6.74 µM | 2.81 µM | 6.14 µM | 4.81 µM | 16.1 µM |
| C=C(c1nc2ccc(Cl)cc2[nH]c1=O)C(O)c1ccc(C(O)C(=O)c2nc3ccc(Cl)cc3[nH]c2=O)cc1 (centres undefined) |  | > 100 µM |  | > 100 µM |  | > 100 µM |  | > 100 µM |  | > 100 µM |  | > 100 µM |  | > 100 µM |  | > 100 µM |  | > 100 µM |  | > 100 µM |
| COc1ccc2c(c1)CCCC(Br)C2=O (centres undefined) |  | 16.8 µM |  | 15.1 µM |  | 44.9 µM |  | 4.36 µM |  | 20.8 µM |  | 23.3 µM |  | 32.1 µM |  | 7.31 µM |  | 37.7 µM |  | > 48.5 µM |
| COc1ccc(/C=C(/C(=O)N2CCN(c3ccccc3)CC2)c2cc(OC)c(OC)c(OC)c2)cc1O | 23.4 µM | > 100 µM | 0.307 µM | > 100 µM | 0.451 µM | > 100 µM | 0.387 µM | 86.5 µM | 0.678 µM | > 100 µM | 0.671 µM | > 100 µM | 30.6 µM | > 100 µM | 0.391 µM | 98.5 µM | 0.322 µM | 6.76 µM | 0.368 µM | > 100 µM |
| C=CCCCCC/C=C\[C@H](O)C#CC#C/C=C/CO | 28.8 µM | > 100 µM | 38.5 µM | > 100 µM | 66.3 µM | > 100 µM | 83.3 µM | > 100 µM | 43.3 µM | > 100 µM | > 100 µM | > 100 µM | 78.9 µM | > 100 µM | 20.1 µM | 54.7 µM | 31.7 µM | 80.3 µM | 17.3 µM | 49.2 µM |
| CN(C)N=Nc1ccc(NC=O)cc1 |  | > 100 µM |  | > 100 µM |  | > 100 µM |  | > 100 µM |  | > 100 µM |  | > 100 µM |  | > 100 µM |  | > 100 µM |  | > 100 µM |  | > 100 µM |
